Eight compounds from article PMC10477886, “Adamantaniline Derivatives Target ATP5B to Inhibit Translation of Hypoxia Inducible Factor‐1α” (Advanced Science, 2023) can be followed below.

The subject of one data set is MHCC97‐L xenograft tumor. Nature of the data set: MHCC97‐L xenograft model in nude mice (wildtype and ATP5A/ATP5B knock‐out). The class given is in vivo. The text has this: HIF‐1α overexpression is implicated in human hepatocellular carcinoma (HCC).^[ [57] ^] To investigate the biological significance of HI‐104 in the progression of HCC by targeting ATP5A or ATP5B, we performed xenograft models in nude mice with ATP5A or ATP5B stable knock‐out MHCC97‐L cell lines (Figure 6A). The cells were inoculated to 6–8 weeks old nude mice under the armpits, and daily intraperitoneal injection of HI‐104 was started after the tumor volume reached 100 mm^3. Tumor volume and body weight were monitored during the treatment.
MHCC97L wildtype and ATP5A or ATP5B stable knock‐out cells (3 × 10^6) were implanted subcutaneously into the right flanks of 6‐week‐old female BALB/c nude mice. After most of the tumors had reached a threshold size of 100 mm^3, the mice received an intraperitoneal injection of vehicle alone (10% DMSO, 10% Cremophor, and 80% saline, pH 7–8) or HI‐104 over 10 days. The tumor volume was monitored every other day with calipers. After 10 days of treatment or if the mice met humane endpoint criteria, the mice were sacrificed, and tumors were dissected, photographed, and weighed. Tumor tissues were either collected and fixed in 10% neutral‐buffered formalin or snap‐frozen in liquid N2 and stored at −80 °C for subsequent analyses. All animals used in this study were handled in accordance with federal and institutional guidelines under a protocol approved by the Institutional Animal Care and Use Committee at Shanghai Jiao Tong University School of Medicine.

Data set [1] relates to HIF‐1α transcriptional activity. Nature of the data set: dual‐luciferase assay (HRE‐Firefly Luciferase / renilla) of HIF‐1α transcriptional activity in HEK293T cells. The class given is cell-based, human. The conditions noted are these: for inhibition at 10 µM / IC50: Homo sapiens, HEK-293T, mean ± s.d. (n = 3); for inhibition at 10 µM: incubation 24 h, read-out: Inhibition rate [%] @ 10 µM; for IC50: HEK293T dual‐luciferase. An excerpt:
To screen HIF‐1α inhibitors in a robust cell‐based assay, we optimized the dual‐luciferase assay with pLenti‐HIF‐1αP2A (P402A and P564A) instead of pLenti‐HIF‐1α in order to ensure the expression of HIF‐1α under normoxia condition. In the cell‐based assay, HEK293T cells were co‐transfected with pLenti‐HIF‐1αP2A, renilla, and hypoxia‐responsive element (HRE)‐Firefly Luciferase (Figure S1, Supporting Information). […] Three compounds were selected as the positive controls including two inhibitors (PX‐478 2HCl and BAY 87‐2243) and an activator (BAY 85‐3934) in the screening assay.
HEK293T cells were stably transfected with reporter plasmids pGMLV‐HRE‐LUC‐puromycin, pMSCV‐renilla‐hygromycin, and pLenti‐HIF‐1αP2A‐neomycin. Stable cell line constructed above, 293‐HIF‐1αP2A‐HRE‐Fluc‐Rluc, were seeded in 384‐well plates and cultured in DMEM with 10% FBS. The following day, the cells were pretreated with indicated chemical compounds from the National Compound Library of the Shanghai Institute of Materia Medica, Chinese Academy of Sciences by Mosquito HTS. The plate was then placed in an incubator chamber and incubated at 37 °C for 24 h. The ratio of firefly/renilla luciferase activity was determined by using the Envision (PerkinElmer).
Stable cell line 293‐HRE‐Fluc‐Rluc expressed luciferase and renilla or HEK293T cells transfected with indicated plasmids (pGL3‐HRE‐luciferase and pSV40‐renilla) were seeded in a 96‐well plate. The cells were co‐incubated with indicated compounds for 24 h and luciferase activities were detected in Microplate Reader (BioTek SYNEGRY H1) using the Dual Luciferase Reporter Assay System Kit (Promega, USA E1910) according to the manufacturer's instruction. The relative Luc activity was normalized by renilla activity. Three independent experiments were performed, and the calculated means and SDs are presented.

Data set [2] is described as follows: toxicity in ICR mice, administering for 1 week. The format is in vivo. The conditions noted are these: 100 mg kg^−1 intraperitoneal for 1 week. How it is done: (§1) First, we roughly screened the concentrations in the plasma of seven selected compounds (1‐3n, 1‐3au, 1‐4a, 1‐4k, 1‐4l, 1‐4m, and 1‐4p) at indicated times after intraperitoneal administration in the Institute of Cancer Research (ICR) mice at a dose of 50 mg kg^−1 with two mice per compound, the blood at five different times was collected and the plasma concentration was analyzed finally. […] Besides, we examined the toxicity of HI‐104 in ICR mice by administering for 1 week at a dose of 100 mg kg^−1 by intraperitoneal injection.

A short description of data set [3]: plasma concentration and pharmacokinetics after intraperitoneal administration in ICR mice. The class given is in vivo. The conditions noted are these: for concentration in the plasma (rough screen): intraperitoneal 50 mg kg^−1, two mice per compound, five times. As for the experimental part: as §1
The target in another data set is F1‐ATP synthase complex (Sus scrofa, UniProt K7GLT8+P80021). Nature of the data set: fluorescence polarization binding assay. On the set-up: species or system pig. An excerpt:
ATP5A and ATP5B are important components of FOF1–ATP synthase, also known as ATP synthase, which is a protein complex that catalyzes ATP synthesis by utilizing energy from the translocation of protons across biological membranes.^[ [40] ^] FOF1‐ATP synthase consists of two domains: the membrane‐spanning domain, FO, which acts as a proton channel, and the soluble catalytic domain, F1, which synthesizes ATP and is composed of nine subunits(α 3 β 3 γδɛ).^[ [41], [42], [43], [44] ^] […] To verify whether HI‐101 targeted ATP5A and ATP5B, we knocked down the subunits of F1 domains separately by shRNA.
F1‐ATPase at indicated concentrations was incubated with HI‐103 (4 nM), bodipy‐1 was as a negative molecule, conduct the experiment after incubating in 96‐well microplates of black polystyrene for 10 min. The FP results were analyzed with GraphPad Prism 9.0.
Background: Polarisation of emitted light reports the rotation of a fluorescent probe.

A further data set concerns HIF‐1α protein level. Nature of the data set: western blot of HIF‐1α protein level in cells. The format is cell-based, human. To be noted: hypoxia. As for the experimental part:
Cells were lysed with RIPA lysis (Epizyme, PC101) containing 1% cocktail protease inhibitors (MCE), and protein concentrations were determined by BCA kits (Beyotime, P0012S). Samples were denatured using DS‐PAGE Protein Staining and Loading Buffer (5×) (Beyotime, P0015L) followed by boiling for 10 min at 98 °C then the proteins were fractionated by 10% or 12.5% SDS‐PAGE and transferred to Cellulose Nitrate Membrane Filters (WHATMAN). After blocking in 5% non‐fat milk for 2 h at room temperature, the membrane was incubated overnight with specific antibodies at 4 °C, followed by horseradish peroxidase (HRP)‐linked anti‐mouse or anti‐rabbit secondary antibody (Cell Signaling Technology). Finally, An Immobilon Western Chemiluminescent HRP Substrate Kit (Merck Millipore) was used for protein bands detection. In addition, blots were probed with anti‐β‐actin (Merck, Darmstadt, Germany) antibody as the internal control.

Sequence of F1‐ATP synthase complex (K7GLT8 entry or part of it): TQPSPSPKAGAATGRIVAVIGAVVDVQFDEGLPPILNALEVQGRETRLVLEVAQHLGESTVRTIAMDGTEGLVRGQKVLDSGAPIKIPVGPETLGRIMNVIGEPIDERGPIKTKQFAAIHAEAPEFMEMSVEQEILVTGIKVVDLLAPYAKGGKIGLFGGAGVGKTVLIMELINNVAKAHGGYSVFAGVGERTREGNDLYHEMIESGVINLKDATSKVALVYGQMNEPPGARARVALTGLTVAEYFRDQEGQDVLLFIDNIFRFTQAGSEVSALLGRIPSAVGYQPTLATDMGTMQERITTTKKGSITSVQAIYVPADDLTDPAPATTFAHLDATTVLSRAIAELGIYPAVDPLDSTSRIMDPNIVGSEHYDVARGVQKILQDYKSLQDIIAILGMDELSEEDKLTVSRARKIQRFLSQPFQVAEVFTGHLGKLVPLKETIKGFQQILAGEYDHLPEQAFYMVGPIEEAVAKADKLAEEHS
Sequence of F1‐ATP synthase complex (A0A286ZYL7 entry or part of it, further chain): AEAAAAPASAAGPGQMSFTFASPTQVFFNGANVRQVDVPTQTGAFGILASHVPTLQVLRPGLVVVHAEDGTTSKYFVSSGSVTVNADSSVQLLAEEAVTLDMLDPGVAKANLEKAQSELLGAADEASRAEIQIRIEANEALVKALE
Sequence of F1‐ATP synthase complex (A5GFX4 entry or part of it, further chain): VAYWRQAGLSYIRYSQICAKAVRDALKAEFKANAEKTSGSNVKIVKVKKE
Sequence of F1‐ATP synthase complex (P80021 44-553): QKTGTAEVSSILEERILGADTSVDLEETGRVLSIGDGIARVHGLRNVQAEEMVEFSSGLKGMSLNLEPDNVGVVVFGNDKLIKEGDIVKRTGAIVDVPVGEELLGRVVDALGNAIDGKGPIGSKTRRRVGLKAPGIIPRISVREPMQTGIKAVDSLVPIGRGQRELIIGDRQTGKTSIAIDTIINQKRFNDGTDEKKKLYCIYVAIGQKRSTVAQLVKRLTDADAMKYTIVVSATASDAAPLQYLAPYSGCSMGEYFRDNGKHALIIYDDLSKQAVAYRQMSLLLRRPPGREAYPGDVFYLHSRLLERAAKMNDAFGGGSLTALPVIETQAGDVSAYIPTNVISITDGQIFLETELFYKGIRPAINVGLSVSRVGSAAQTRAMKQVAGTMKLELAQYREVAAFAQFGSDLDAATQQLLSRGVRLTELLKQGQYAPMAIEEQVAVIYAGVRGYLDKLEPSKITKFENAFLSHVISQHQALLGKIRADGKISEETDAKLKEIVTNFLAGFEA

What is called inhibition is the drop in the measured response relative to a control, in per cent. For orientation: IC50 means the concentration that gives 50% inhibition. For orientation: half-life means the time needed for the level to fall by half in the phase considered. With `C[N+](C)(C)CCCC(=O)Nc1ccc(C(=O)Nc2ccc(C34CC5CC(CC(C5)C3)C4)cc2)cc1` [1‐3au, 4‐((4‐((4‐((3r,5r,7r)‐Adamantan‐1‐yl)Phenyl)Carbamoyl)Phenyl)Amino)‐N,N,N‐Trimethyl‐4‐Oxobutan‐1‐Aminium], in the data set on MHCC97‐L xenograft tumor (ATP5B KO MHCC97‐L xenograft models), the tumor growth entry is “almost had no effect”. Further, in the data set with MHCC97‐L xenograft tumor (wildtype MHCC97‐L xenograft, daily intraperitoneal injection), the “tumor volume and weight” value is “reduced the tumor volume and weight”. Besides, the body weight result in the data set with MHCC97‐L xenograft tumor (wildtype MHCC97‐L xenograft, nude mice) is on record as “tolerant weight loss”. The inhibition at 10 µM in data set [1] (HEK293T) amounted to 89.9 ± 1.6%. Further, the IC50 in data set [1] was 1.3 ± 0.3 µM. Also, in data set [2], the “toxicity (body weight and mental status)” value is given as “not overtly toxic”. In data set [3], the “concentration in the plasma (rough screen)” value (from here on “concentration in the plasma”) is listed as “high concentration in the plasma”. Further, the AUC in data set [3] (mouse, ip, intraperitoneal, plasma, read-out: area under the curve (AUC0‐24 h)) came to 861 µg·h/mL. In data set [3] (mouse, ip, intraperitoneal, plasma, read-out: maximum concentration (Cmax)), the Cmax was found to be 91.7 µg/mL. In addition, in data set [3] (mouse, plasma, ip, intraperitoneal), the half-life was 5.66 h.
As usually defined, the Kd is the equilibrium constant for the complex coming apart. Read a high Kd as weaker binding. As to `CC1=CC(C)=[N+]2C1=C(CCCC(=O)Nc1ccc(C(=O)Nc3ccc(C45CC6CC(CC(C6)C4)C5)cc3)cc1)c1c(C)cc(C)n1[B-]2(F)F` [1‐3z, N‐(4‐((3r,5r,7r)‐Adamantan‐1‐yl)Phenyl)−4‐(4‐(5,5‐Difluoro‐1,3,7,9‐Tetramethyl‐5H‐4l4,5l4‐Dipyrrolo[1,2‐c:2′,1′‐f][1,3,2]Diazaborinin‐10‐yl)Butanamido)Benzamide], the inhibition at 10 µM in data set [1] (HEK293T) is 80.3 ± 1.2%. In addition, in data set [1], the IC50 is 2.1 ± 0.5 µM. Besides, at F1‐ATP synthase complex, the affinity, expressed as Kd, was 0.0026 µM.
Turning to `O=C(Nc1ccc(C23CC4CC(CC(C4)C2)C3)cc1)c1ccccn1` [1‐4a, N‐(4‐((3r,5r,7r)‐Adamantan‐1‐yl)Phenyl)Picolinamide], the inhibition at 10 µM in data set [1] (HEK293T) was found to be 99.7 ± 0.2%. Besides, inhibition in data set [1] was half-maximal at 0.065 ± 0.022 µM (IC50). The “concentration in the plasma” value in data set [3] was “barely detectable in the plasma”.
On the same counts, the results for `O=C(Nc1ccc(C23CC4CC(CC(C4)C2)C3)cc1)c1c[nH]cn1` [1‐4k, N‐(4‐((3r,5r,7r)‐Adamantan‐1‐yl)Phenyl)−1H‐Imidazole‐4‐Carboxamide] are 99.7 ± 0.2%, 0.086 ± 0.003 µM and “barely detectable in the plasma”.
In the same order, the values of `Cn1cncc1C(=O)Nc1ccc(C23CC4CC(CC(C4)C2)C3)cc1` [1‐4l, N‐(4‐((3r,5r,7r)‐Adamantan‐1‐yl)Phenyl)−1‐Methyl‐1H‐Imidazole‐5‐Carboxamide] are 97.8 ± 0.6%, 0.083 ± 0.003 µM and “barely detectable in the plasma”.
On the same counts, the results for `O=C(Nc1ccc(C23CC4CC(CC(C4)C2)C3)cc1)c1cc[nH]n1` [1‐4m, N‐(4‐((3r,5r,7r)‐Adamantan‐1‐yl)Phenyl)−1H‐Pyrazole‐3‐Carboxamide] are 99.8 ± 0.1%, 0.079 ± 0.002 µM and “barely detectable in the plasma”.
For `Nc1ccnc(C(=O)Nc2ccc(C34CC5CC(CC(C5)C3)C4)cc2)c1` [1‐4p, N‐(4‐((3r,5r,7r)‐Adamantan‐1‐yl)Phenyl)−4‐Aminopicolinamide], the inhibition at 10 µM in data set [1] (HEK293T) came out at 99.2 ± 0.1%. Further, in data set [1], half-maximal inhibition (IC50) was put at 0.073 ± 0.002 µM. Besides, in data set [3], the “concentration in the plasma” value is “barely detectable in the plasma”.
As to `CC[C@H]1/C=C/C=C/C[C@@H](C)[C@H](O)[C@@](C)(O)C(=O)[C@@H](C)[C@H](O)[C@@H](C)C(=O)[C@@H](C)[C@H](O)[C@@H](C)/C=C/C(=O)O[C@@H]2[C@H](C)[C@H](CC1)O[C@]1(CC[C@H](C)[C@H](C[C@@H](C)O)O1)[C@H]2C` [Oligomycin, reference compound], in data set [1] (HEK293T, hypoxia), the “HIF‐1α transcriptional activity (relative luciferase activity), in words” value is “decreased HIF‐1α transcriptional activity and protein level in a dose‐dependent manner”. Moreover, the “HIF‐1α protein level” value in the data set with HIF‐1α protein level is “decreased HIF‐1α transcriptional activity and protein level in a dose‐dependent manner”.
